Test results published in patent publication US20140206763A1, “PHENYLBUTYRATE FOR TREATMENT OF SPORADIC INCLUSION-BODY MYOSITIS AND DISORDERS RELATING TO AUTOPHAGY IMPAIRMENT OR AMYLOID BETA 42 ACCUMULATION” (UNIVERSITY OF SOUTHERN CALIFORNIA, priority 2013, published 2014).
“Also recorded” adds a separate entry of the source.

What was measured:
[1] = system: cultured human muscle fibers (CHMFs); assay: Vacuolization of cultured human muscle fibers by phase-contrast microscopy; type: cell-based; conditions: for vacuolization of chloroquine-exposed CHMFs: chloroquine 50 μM 24 hours + NaPB 15 mM, vs chloroquine alone; for vacuolization of CHMFs after exposure to lysosomal inhibitor alone: exposure alone 24 hours, vs control CHMFs
Experimental: (§1) Primary cultures of normal human muscle were established as routinely performed in our laboratory (Askanas and Engel, 1992) from archived satellite cells of portions of diagnostic muscle biopsies from patients who, after all tests were performed, were considered free of muscle disease. Each experiment was performed on 3-9 different culture sets, each established from satellite cells derived from a different muscle biopsy. 10-15 days after myoblast fusion, the well-differentiated myotubes were, as previously described (Nogalska et al., 2012; Nogalska et al., 2010b), exposed for 24 hours to either: a) chloroquine (Chl), a lysosomotropic agent raising lysosomal pH and inhibiting activities of cathepsins (Shacka et al., 2006) (50 μM, Sigma-Aldrich, St. Louis, Mo.); or b) bafilomycin Al (Baf), an inhibitor of lysosomal V-ATPase causing an increase in lysosomal pH and inhibiting activities of cathepsins (Shacka et al., 2006) (25 nM, Sigma-Aldrich). CHMFs were also treated with NaPB (Tocris/R&D Systems, Minneapolis, Minn.) in doses ranging from 1-15 mM, used either alone or together with chloroquine or bafilomycin.

[2] = system: GFP-LC3; assay: GFP-LC3 puncta count (autophagosome accumulation) in CHMFs; type: cell-based, human
Experimental: To morphologically evaluate accumulation of autophagosomes, three different tissue-culture sets (experiments) were transduced with PremoAutophagy Sensor GFP-LC3 (Invitrogen, Carlsbad, Calif.) according to the manufacturer's instructions. 24 hours later, CHMFs were treated with chloroquine as described above. Counting of the GFP-LC3 puncta in the muscle fibers was performed on all three different culture experiments. Each experiment involved the same three different conditions: control, chloroquine-exposed, and chloroquine-exposed-plus-NaPB-treated cultures. In each experiment, each condition was composed of two cultures. For the analysis, eight random fields per condition of each culture were photographed (magnification ×40) in each of the three experiments. Overall, in each of the three conditions GFP-LC3 puncta were evaluated in more than 80 fibers, independently by two investigators (AN and CD). In addition, GFP-LC3 transduced CHMFs were also processed for immunofluorescence of NBR1 (1:100, 4BR, Santa Cruz Biotechnology, Santa Cruz, Calif.).

[3] = system: LC3-II; assay: LC3-II immunoblot with densitometric analysis in CHMFs; type: cell-based, human; conditions: for increase of LC3-II: exposure to inhibitor alone, vs control CHMFs
Experimental: as §1
(§2) CHMFs were harvested in RIPA buffer and immunoblotted, as previously detailed (D'Agostino et al., 2011; Nogalska et al., 2012; Nogalska et al., 2010b) using antibodies against LC3 (1:500, Novus Biologicals, Littleton, Colo.), p62 (1:100, A-6, Santa Cruz Biotechnology) or NBR1 (1:700). Aβ42 oligomers were studied using 6E10 antibody (1:500, Covance, Princeton, N.J.), as described (Nogalska et al., 2010a). Blots were developed using anti-rabbit or anti-mouse WesternBreeze chemiluminescence kits (Invitrogen). Protein loading was evaluated by the actin band (1:600, C-2, Santa Cruz Biotechnology). Quantification of the immunoreactivity was performed by densitometric analysis using NIH Image J 1.310 software.

[4] = system: NBR1; assay: NBR1 immunoblot with densitometric analysis in CHMFs; type: cell-based, human; conditions: for increase of NBR1 levels: exposure to inhibitor alone, vs control CHMFs
Experimental: as §1, §2

[5] = system: p62; assay: p62 immunoblot with densitometric analysis in CHMFs; type: cell-based, human; conditions: for increase of p62: exposure to inhibitor alone, vs control CHMFs
Experimental: as §1, §2

[6] = system: Cathepsin D; assay: Measurement of Cathepsin D activity in CHMF homogenates; type: cell-based, human; conditions: for reduction of Cathepsin D activity: exposure to inhibitor alone, vs control CHMFs
Experimental: as §1
Cathepsin D [EC 3.4.23.5] activity was measured utilizing a Cathepsin D Assay Kit (Sigma, St. Louis, Mo.) according to manufacturer's instructions and as previously detailed (Nogalska et al., 2010b). Homogenates were prepared in phosphate buffer-saline with addition of CHAPS (0.05%) (Sigma-Aldrich). All samples were measured in duplicate. The fluorescence emission excited at 355 nm was recorded at 405 nm every 2 minutes. Activity of cathepsin D measured in the linear phase of the reaction was expressed as fluorescence-intensity per minute.

[7] = system: Cathepsin B; assay: Measurement of Cathepsin B activity in CHMFs; type: cell-based, human; conditions: for reduction of Cathepsin B activity: exposure to inhibitor alone, vs control CHMFs
Experimental: as §1
Cathepsin B [EC 3.4.22.1] activity was measured as described (Nogalska et al., 2010b). Samples were measured in duplicate. All samples were incubated at 37° C. for 45 min, and the fluorescence emission excited at 355 nm was recorded at 444 nm. Activity of cathepsin B was expressed as arbitrary fluorescence units.

[8] = system: Aβ42; assay: Aβ42 ELISA in CHMFs; type: cell-based, human
Experimental: as §1
To quantify endogenous Aβ42 content in cultured human muscle fibers, we used the “Human β-Amyloid (1-42) ELISA kit, WAKO, High Sensitive” (WAKO Chemicals USA, Inc., Richmond, Va.) as described (Nogalska et al., 2012). Homogenates were freshly prepared in RIPA buffer containing a protease inhibitor cocktail (Roche Diagnostic, Mannheim, Germany). 100 μg of protein per well from each sample were diluted in a Standard Diluent Buffer provided in the kit, added to the assay plates in duplicate, and incubated overnight at 4° C. The ELISA was performed the next day, according to manufacturer's protocol. The absorbance was read at 450 nm.

[9] = system: Aβ42 oligomers; assay: Aβ42 oligomers immunoblot (6E10 antibody) in CHMFs; type: cell-based, human
Experimental: Primary cultures of normal human muscle were established as routinely performed in our laboratory (Askanas and Engel, 1992) from archived satellite cells of portions of diagnostic muscle biopsies from patients who, after all tests were performed, were considered free of muscle disease. Each experiment was performed on 3-9 different culture sets, each established from satellite cells derived from a different muscle biopsy. […]
as §2, with “Aβ42 oligomers were studied using 6E10 antibody (1:500, Covance, Princeton, N.J.), as described (Nogalska et al., 2010a). Blots were developed using anti-rabbit or anti-mouse WesternBreeze chemiluminescence kits (Invitrogen).” left out

[10] = system: γ-secretase; assay: Measurement of γ-secretase activity in CHMFs; type: cell-based, human
Experimental: as §1
γ-secretase activity was measured as previously described (Nogalska et al., 2012). Briefly, cultures were homogenized in PBS buffer with addition of 0.05% CHAPS. The supernatants containing 50 μg of protein were added to the reaction mixture containing assay buffer (50 mM TRIS-HCl pH 6.8, 2 mM EDTA, 0.25% CHAPS). The reaction was initiated by adding a specific synthetic substrate NMA-Amyloid β-Protein (aa708-715)-Lys-(DNP) Arg-Arg-Arg-amide trifluoroacetate salt (10 μM) (Sigma-Aldrich). After overnight incubation at 37° C., the samples were centrifuged at 16,000×g for 15 minutes, supernatants were transferred to a 96-well plate and the fluorescence emission excited at 390 nm was recorded at 444 nm. Activity of γ-secretase was expressed as arbitrary fluorescence units.

[11] = system: control CHMFs; assay: Morphology and muscle-fiber viability of control CHMFs; type: cell-based, human; conditions: 15 mM NaPB
Experimental: as §1

[12] = cited from earlier work
[13] = patients with urea cycle-disorders, compared with NaPB; cited from earlier work
[14] = system: CHMFs; assay: Treatment of CHMFs with HDAC inhibitor compared with PB; type: cell-based, human; conditions: data not shown
[15] = bafilomycin+NaPB (15 mM) vs bafilomycin alone
[16] = chloroquine+NaPB (15 mM) vs chloroquine alone
[17] = autophagy-impaired cultures, not significantly worse than controls
[18] = bafilomycin+NaPB (15 mM) vs bafilomycin without NaPB
[19] = chloroquine alone vs control CHMFs

In the case of O=C([O-])CCCc1ccccc1.[Na+] [NaPB, Sodium 4-phenylbutanoate], the “vacuolization of bafilomycin-exposed CHMFs” value ([1]; bafilomycin 25 nM 24 hours + NaPB 15 mM, vs bafilomycin alone) is reported as “nearly completely prevented their vacuolization; also recorded: morphologically prominent decrease of their vacuolization”, the “vacuolization of chloroquine-exposed CHMFs” value [1] is reported as “virtually completely prevented their vacuolization” and the “vacuolization of chloroquine-exposed CHMFs” value ([1]; listed as PB) is reported as “prominently eliminating their vacuolization”. The “decrease of number of GFP-LC3 foci” value ([2]; chloroquine+NaPB (15 mM) vs chloroquine-only exposed cultures) was 53%, the “decrease of LC3-II” value [3, 15] was 36% and the “decrease of LC3-II” value [3, 16] was 54%. The “effect on protein level of LC3-II” value ([3]; control CHMFs, NaPB 1-15 mM) was “did not exert any effect”, the “decrease of NBR1” value [4, 15] was 34% and the “reduction of increased NBR1” value [4, 16] was 63%. For the same compound, the “effect on protein level of NBR1” value ([4]; control CHMFs, NaPB 1-15 mM) was “did not exert any effect”, the “decrease of p62” value [5, 15] was 83% and the “decrease of p62” value [5, 16] was 74%. For the same compound, the “effect on p62 at lower dose” value ([5]; chloroquine-exposed CHMFs, NaPB 5 mM) was “significantly decreased p62; also recorded: statistically significantly decreased”, the “effect on protein level of p62” value ([5]; control CHMFs, NaPB 1-15 mM) was “did not exert any effect” and the “Cathepsin D value after NaPB treatment compared with controls (ANOVA)” value [6, 17] was “fully corrected”. The “higher activity of Cathepsin D” value [6, 18] was 15%, the “increase of Cathepsin D activity” value [6, 16] was 40% and the “effect on Cathepsin D activity” value ([6]; control CHMFs, NaPB 1-15 mM) was “did not exert any effect”. For the same compound, the “effect on Cathepsin B activity in ER-stress model” value ([7]; ER-stress-induced CHMFs, data not shown) was “mitigates the reduction of Cathepsin B activity”, the “higher activity of Cathepsin B” value [7, 18] was 40% and the “increase of Cathepsin B activity” value [7, 16] was 70%. For the same compound, the “effect on Cathepsin B activity” value ([7]; control CHMFs, NaPB 1-15 mM) was “did not exert any effect”, the “Aβ42 by ELISA value after NaPB treatment compared with controls (ANOVA)” value [8, 17] was “fully corrected” and the “lower amount of Aβ42 by ELISA” value ([8]; bafilomycin+NaPB (15 mM) vs bafilomycin alone, 2 culture sets, statistical significance not reached) was 28%. The “decrease of Aβ42 by ELISA” value [8, 16] was 53%, the “lower amount of Aβ42 oligomers” value [9, 15] was 60% and the “decrease of Aβ42 oligomers” value ([9]; chloroquine+NaPB (15 mM) vs autophagy-impaired NaPB-non-treated CHMFs) was 65%. The “γ-secretase activity value after NaPB treatment compared with controls (ANOVA)” value [10, 17] was “fully corrected”, the “decrease of γ-secretase activity” value ([10]; chloroquine+NaPB (15 mM) vs untreated autophagy-impaired CHMFs) was 56% and the “adverse morphologic abnormalities and muscle-fiber viability” value [11] was “did not produce either adverse morphologic abnormalities or affect muscle-fiber viability”. The “tolerability, daily and long-term” value ([12]; infants, children and adults with urea-cycle disorders) was “usually well tolerated” and the “tolerability in preliminary trials” value ([12]; patients with amyotrophic lateral sclerosis (ALS)) was “well-tolerated”.

In the case of O=C(CCCc1ccccc1)OCC(COC(=O)CCCc1ccccc1)OC(=O)CCCc1ccccc1 [GPB, 1,2,3-Propanetriyl tris(4-phenylbutanoate)], the lowering blood ammonia [13] is given as “as effective as NaPB”.

In the case of CC(/C=C/C(=O)NO)=C\[C@@H](C)C(=O)c1ccc(N(C)C)cc1 [trichostatinA], the “ameliorative effect compared with PB” value [14] is reported as “did not have an effect similar to that achieved with PB”.

With CCN(CC)CCCC(C)Nc1ccnc2cc(Cl)ccc12 (centres unmarked) [chloroquine] the “vacuolization of CHMFs after exposure to lysosomal inhibitor alone” value [1] was “induced pronounced vacuolization”, the “increase of number of GFP-LC3 foci/puncta per muscle fiber” value ([2]; exposure alone, vs control CHMFs) was 8 fold and the “increase of LC3-II” value [3] was 9 fold. The “increase of NBR1 levels” value [4] was 5 fold, the “increase of p62” value [5] was 9 fold and the “reduction of Cathepsin D activity” value [6] was 40%. The “reduction of Cathepsin B activity” value [7] was 60%, the “increase of Aβ42 by ELISA” value [8, 19] was 60% and the “γ-secretase activity after inhibitor exposure” value [10, 19] was “significantly increased γ-secretase activity”.

For CO/C1=C\C(C)=C\[C@@H](C)[C@@H](O)[C@@H](C)C/C(C)=C/C=C/[C@H](OC)[C@@H]([C@@H](C)[C@@H](O)[C@H](C)[C@@]2(O)C[C@@H](O)[C@H](C)[C@@H](C(C)C)O2)OC1=O [bafilomycin, bafilomycin Al], the “vacuolization of CHMFs after exposure to lysosomal inhibitor alone” value [1] was “induced pronounced vacuolization”, the “increase of LC3-II” value [3] was 17 fold and the “increase of NBR1 levels” value [4] was 9 fold. For the same compound, the “increase of p62” value [5] was 18 fold, the “reduction of Cathepsin D activity” value [6] was 25% and the “reduction of Cathepsin B activity” value [7] was 85%. The “Aβ42 by ELISA after inhibitor exposure” value ([8]; Baf-exposed CHMFs, two separate experiments) was “elevated”.
